The text below walks through data of publication PMC7647070, “Mechanisms of QT prolongation by buprenorphine cannot be explained by direct hERG channel block” (PLoS ONE, 2020).

Read-outs that look alike come from different tables or passages of the source.

Data set [1] has as its target T1, hERG1a/1b (heteromeric hERG channel, IhERG) (Homo sapiens, UniProt Q12809).
T1 construct: gene KCNH2

Data set [2] deals with T2, hERG1a (homomeric hERG channel, IhERG) (Homo sapiens, UniProt Q12809).
T2 construct: gene KCNH2

The target in data set [3] is T1, hERG1a/1b (heteromeric hERG channel, IhERG). As to the kind of experiment: whole-cell patch clamp, tail current.
Data set [4] deals with T2, hERG1a (homomeric hERG channel, IhERG). As to the kind of experiment: whole-cell patch clamp, tail current.

T1 sequence (Q12809 whole entry): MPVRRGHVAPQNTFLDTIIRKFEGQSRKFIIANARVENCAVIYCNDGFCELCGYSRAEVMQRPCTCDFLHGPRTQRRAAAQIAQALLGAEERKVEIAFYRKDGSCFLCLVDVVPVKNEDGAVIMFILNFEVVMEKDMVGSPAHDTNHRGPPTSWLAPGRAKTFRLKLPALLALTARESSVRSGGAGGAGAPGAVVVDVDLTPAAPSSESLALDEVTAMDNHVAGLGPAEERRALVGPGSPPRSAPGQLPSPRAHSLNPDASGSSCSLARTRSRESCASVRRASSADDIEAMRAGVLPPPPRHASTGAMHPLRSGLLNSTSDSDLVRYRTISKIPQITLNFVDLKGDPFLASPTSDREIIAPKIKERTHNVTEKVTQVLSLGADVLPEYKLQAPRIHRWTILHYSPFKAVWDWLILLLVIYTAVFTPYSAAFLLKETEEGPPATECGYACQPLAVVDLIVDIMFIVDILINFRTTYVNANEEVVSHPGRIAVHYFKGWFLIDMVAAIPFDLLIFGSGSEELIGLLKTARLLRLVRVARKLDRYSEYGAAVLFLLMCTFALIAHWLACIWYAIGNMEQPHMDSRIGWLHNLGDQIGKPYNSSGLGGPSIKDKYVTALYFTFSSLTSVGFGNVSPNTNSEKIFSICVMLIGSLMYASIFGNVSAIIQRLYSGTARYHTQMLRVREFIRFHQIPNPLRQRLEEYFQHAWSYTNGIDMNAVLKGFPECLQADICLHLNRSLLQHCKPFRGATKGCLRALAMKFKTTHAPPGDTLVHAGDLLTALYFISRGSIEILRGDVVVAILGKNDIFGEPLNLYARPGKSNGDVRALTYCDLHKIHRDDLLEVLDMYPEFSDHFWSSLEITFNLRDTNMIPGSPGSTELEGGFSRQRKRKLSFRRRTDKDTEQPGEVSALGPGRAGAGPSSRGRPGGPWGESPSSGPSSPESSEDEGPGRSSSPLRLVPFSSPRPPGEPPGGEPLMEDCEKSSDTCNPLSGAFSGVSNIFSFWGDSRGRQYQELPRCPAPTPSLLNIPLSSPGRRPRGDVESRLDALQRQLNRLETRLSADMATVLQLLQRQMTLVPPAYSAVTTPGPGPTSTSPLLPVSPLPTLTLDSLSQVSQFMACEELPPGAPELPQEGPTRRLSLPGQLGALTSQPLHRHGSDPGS
T1 sequence (Q12809 377-1159 limits assumed): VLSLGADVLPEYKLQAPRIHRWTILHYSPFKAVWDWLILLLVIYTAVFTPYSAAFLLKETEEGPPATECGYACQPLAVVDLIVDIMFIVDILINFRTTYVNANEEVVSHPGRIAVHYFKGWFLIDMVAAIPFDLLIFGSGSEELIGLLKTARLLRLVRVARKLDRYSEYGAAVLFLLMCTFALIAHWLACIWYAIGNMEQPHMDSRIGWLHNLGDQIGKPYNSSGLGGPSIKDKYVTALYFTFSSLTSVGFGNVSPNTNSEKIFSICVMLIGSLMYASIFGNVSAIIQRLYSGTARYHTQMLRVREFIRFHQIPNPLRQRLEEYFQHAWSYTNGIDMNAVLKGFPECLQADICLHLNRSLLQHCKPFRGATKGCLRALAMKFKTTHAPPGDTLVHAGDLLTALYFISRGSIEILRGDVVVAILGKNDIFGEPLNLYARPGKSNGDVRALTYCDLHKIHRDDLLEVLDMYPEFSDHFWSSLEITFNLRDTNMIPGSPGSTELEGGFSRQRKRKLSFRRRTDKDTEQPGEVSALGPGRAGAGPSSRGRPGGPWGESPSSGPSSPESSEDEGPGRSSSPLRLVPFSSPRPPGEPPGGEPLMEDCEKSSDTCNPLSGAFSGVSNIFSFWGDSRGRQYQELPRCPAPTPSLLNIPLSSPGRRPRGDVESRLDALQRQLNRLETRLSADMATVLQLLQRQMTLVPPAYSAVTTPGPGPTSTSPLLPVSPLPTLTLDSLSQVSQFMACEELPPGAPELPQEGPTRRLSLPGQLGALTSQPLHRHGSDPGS
T2 sequence (Q12809 whole entry): as the sequence (Q12809 whole entry) above

In the case of `CO[C@]12CC[C@@]3(C[C@@H]1[C@](C)(O)C(C)(C)C)[C@H]1Cc4ccc(O)c5c4[C@@]3(CCN1CC1CC1)[C@H]2O5` [Buprenorphine], the figures for the IC50 in data set [1] and in data set [2] were 6.9 ± 0.9 µM and 8.7 ± 0.4 µM, respectively.

With `O=C1CC[C@@]2(O)[C@H]3Cc4ccc(O)c5c4[C@@]2(CCN3CC2CC2)[C@H]1O5` [Naltrexone], the IC50 in data set [3] is 32.3 ± 8.6 µM; in data set [4], 31.1 ± 5.4 µM.
